Tests used:
[1] = Caco-2 permeability assay (CacoReady kit); assay type: in vitro ADME; settings: human
How it was run: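 Papp values come from Caco-2 barrier studies intended to predict oral bioavailability; the manufacturer's procedure for the ready-made kit was followed.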

[2] = Log D by shake flask method (octanol / PBS pH 7.4, HPLC); assay type: physicochemical; settings: octanol / PBS pH 7.4, shake flask; read-out: logD
How it was run: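 Shake-flask partitioning of compound between octanol and PBS at pH 7.4, with phase concentrations quantified by HPLC. The value reported is Log D.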

[3] = molecular target: T1, recombinant human transglutaminase 2 (Homo sapiens, UniProt P21980); assay: Transglutaminase assay: incorporation of dansylcadaverine into dimethylcasein (DCC-assay); assay type: biochemical; settings: recombinant human TG2 10 nM, dansylcadaverine/dimethylcasein; read-out: IC50 TG2
T1 sequence (P21980 1-687): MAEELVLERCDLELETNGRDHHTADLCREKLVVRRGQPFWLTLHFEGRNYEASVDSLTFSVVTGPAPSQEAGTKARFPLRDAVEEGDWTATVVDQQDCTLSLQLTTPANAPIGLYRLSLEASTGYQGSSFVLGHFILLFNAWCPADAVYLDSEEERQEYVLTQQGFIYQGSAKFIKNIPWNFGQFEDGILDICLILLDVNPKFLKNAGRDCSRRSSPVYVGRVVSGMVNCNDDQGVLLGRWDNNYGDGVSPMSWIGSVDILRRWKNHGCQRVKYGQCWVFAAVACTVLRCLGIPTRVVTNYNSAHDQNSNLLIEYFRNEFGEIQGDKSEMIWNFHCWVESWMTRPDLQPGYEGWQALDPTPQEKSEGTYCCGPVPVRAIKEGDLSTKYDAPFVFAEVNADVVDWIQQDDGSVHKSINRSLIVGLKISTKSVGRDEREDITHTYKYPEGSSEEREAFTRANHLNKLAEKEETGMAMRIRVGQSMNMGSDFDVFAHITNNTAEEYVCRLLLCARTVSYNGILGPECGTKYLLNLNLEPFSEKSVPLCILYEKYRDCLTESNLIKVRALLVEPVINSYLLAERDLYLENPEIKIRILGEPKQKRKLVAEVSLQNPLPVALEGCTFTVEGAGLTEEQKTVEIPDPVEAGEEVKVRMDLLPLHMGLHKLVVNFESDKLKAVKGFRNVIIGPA
How it was run: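 Recombinant human TG2 (10 nM final) incorporates dansylcadaverine (16.7 μM) into N,N-dimethylcasein (4 μM) in Tris-HCl buffer, pH 8.0, with 10 mM CaCl2 and 10 mM glutathione. Fluorescence (λex 330, λem 500 nm) followed 30 min. The slope between 20–30 min gives activity versus DMSO control, and IC50 comes from the concentration–activity plot.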

SMILES | Papp [1] [×10⁻⁶ cm/s] | logD [2] | IC50 [3] [nM]
CCNC(=O)C(=O)CC[C@H](NC(=O)c1cncn1C)C(=O)Nc1cccn(CC(=O)NC23CC4CC(CC(O)(C4)C2)C3)c1=O [Compound I-7, (S)-N1-ethyl-N6-(1-(2-(3-hydroxyadamantane-1-amino)-2-oxoethyl)-2-oxo-1,2-dihydropyridin-3-yl)-5-(1-methyl-1H-imidazole-5-carboxamido)-2-oxohexanediamide] | < 1 | < 1 | 600 to 3500
CCNC(=O)C(=O)CC[C@H](NC(=O)c1c(C)nc2sccn12)C(=O)Nc1cccn(CC(=O)N(C)C2C3CC4CC(C3)CC2C4)c1=O (stereo partly drawn) [Compound I-67, (S)-N1-ethyl-N6-(1-(2-(2-adamantyl(methyl)amino)-2-oxoethyl)-2-oxo-1,2-dihydropyridin-3-yl)-5-(6-methylimidazo[2,1-b]thiazole-5-carboxamido)-2-oxohexanediamide] | < 1 | 3 to 5 | 600 to 3500
CCNC(=O)C(=O)CC[C@H](NC(=O)c1ccc2c(c1)CCCN2)C(=O)Nc1cccn(CC(=O)NC23CCC(C2)C3)c1=O [Compound I-104, (S)-N1-(1-(2-(bicyclo[2.1.1]hexan-1-ylamino)-2-oxoethyl)-2-oxo-1,2-dihydropyridin-3-yl)-N6-ethyl-5-oxo-2-(1,2,3,4-tetrahydroquinoline-6-carboxamido)hexanediamide] | < 1 | < 1 | 600 to 3500
CCNC(=O)C(=O)CC[C@H](NC(=O)c1cncn1C)C(=O)Nc1cccn(CC(=O)NC23CC4CC(C2)C(F)(F)C(C4)C3)c1=O [Compound I-12, (S)-N1-ethyl-N6-(1-(2-(4,4-difluoroadamantane-1-amino)-2-oxoethyl)-2-oxo-1,2-dihydropyridin-3-yl)-5-(1-methyl-1H-imidazole-5-carboxamido)-2-oxohexanediamide] | < 1 | < 1 | 150 to 600
CCNC(=O)C(=O)CC[C@H](NC(=O)c1cccnc1)C(=O)Nc1cccn(CC(=O)NC23CC4CC(CC(C4)C2)C3)c1=O [Compound I-121, (S)-N1-ethyl-N6-(1-(2-(3,5-dimethyladamantane-1-amino)-2-oxoethyl)-2-oxo-1,2-dihydropyridin-3-yl)-5-(nicotinamido)-2-oxohexanediamide] | < 1 | < 1 | < 150
CCNC(=O)C(=O)CC[C@H](NC(=O)c1c(C)ncn1C)C(=O)Nc1cccn(CC(=O)NC23CC4CC(C)(CC(C)(C4)C2)C3)c1=O [Compound I-21, (S)-2-(1,4-dimethyl-1H-imidazole-5-carboxamido)-N6-ethyl-N1-(1-(2-(3,5-dimethyladamantane-1-amino)-2-oxoethyl)-2-oxo-1,2-dihydropyridin-3-yl)-5-oxohexanediamide] | < 1 | 1 to 3 | 600 to 3500
CCNC(=O)C(=O)CC[C@H](NC(=O)c1oc2ccccc2c1C)C(=O)Nc1cccn(CC(=O)N[C@@H]2C[C@H]3CC[C@@H]2C3)c1=O [Compound I-70, (S)-N1-(1-(2-((1R,2R,4S)-bicyclo[2.2.1]heptan-2-ylamino)-2-oxoethyl)-2-oxo-1,2-dihydropyridin-3-yl)-N6-ethyl-2-(3-methylbenzofuran-2-carboxamido)-5-oxohexanediamide] | 1 to 10 | 1 to 3 | < 150
CCNC(=O)C(=O)CC[C@H](NC(=O)c1cn(C2CCC2)cn1)C(=O)Nc1cccn(CC(=O)NC23CC4CC(CC(CC)(C4)C2)C3)c1=O [Compound I-20, (S)-2-(1-cyclobutyl-1H-imidazole-4-carboxamido)-N6-ethyl-N1-(1-(2-(3-ethyladamantane-1-amino)-2-oxoethyl)-2-oxo-1,2-dihydropyridin-3-yl)-5-oxohexanediamide] | < 1 | 1 to 3 | 600 to 3500
CCNC(=O)C(=O)CC[C@H](NC(=O)c1cc2cccnc2nc1C)C(=O)Nc1cccn(CC(=O)NC23CC(C2)C3)c1=O [Compound I-103, (S)-N1-(1-(2-(bicyclo[1.1.1]pentan-1-ylamino)-2-oxoethyl)-2-oxo-1,2-dihydropyridin-3-yl)-N6-ethyl-2-(2-methyl-1,8-naphthyridine-3-carboxamido)-5-oxohexanediamide] | < 1 | < 1 | 600 to 3500
CCNC(=O)C(=O)CC[C@H](NC(=O)c1cc(Br)cs1)C(=O)Nc1cccn(CC(=O)NC2C3CC4CC(C3)CC2C4)c1=O (stereo partly drawn) [Compound I-51, (S)-2-(4-bromothiophene-2-carboxamido)-N6-ethyl-N1-(1-(2-(2-adamantylamino)-2-oxoethyl)-2-oxo-1,2-dihydropyridin-3-yl)-5-oxohexanediamide] | 1 to 10 | 3 to 5 | < 150
CCNC(=O)C(=O)CC[C@H](NC(=O)c1cnc(Cl)n1C)C(=O)Nc1cccn(CC(=O)NC23CC4CC(C)(CC(C)(C4)C2)C3)c1=O [Compound I-26, (S)-2-(2-chloro-1-methyl-1H-imidazole-5-carboxamido)-N6-ethyl-N1-(1-(2-(3,5-dimethyladamantane-1-amino)-2-oxoethyl)-2-oxo-1,2-dihydropyridin-3-yl)-5-oxohexanediamide] | < 1 | 1 to 3 | 150 to 600
CCNC(=O)C(=O)CC[C@H](NC(=O)c1nc2ccccc2[nH]1)C(=O)Nc1cccn(CC(=O)NC2C3CC4CC(C3)CC2C4)c1=O (stereo partly drawn) [Compound I-38, (S)-2-(1H-benzo[d]imidazole-2-carboxamido)-N6-ethyl-N1-(1-(2-(2-adamantylamino)-2-oxoethyl)-2-oxo-1,2-dihydropyridin-3-yl)-5-oxohexanediamide] | < 1 | 3 to 5 | < 150
CCNC(=O)C(=O)CC[C@H](NC(=O)c1snnc1CO)C(=O)Nc1cccn(CC2C3CC4CC(C3)CC2C4)c1=O (stereo partly drawn) [Compound I-84, (S)-N1-(1-(2-adamantylmethyl)-2-oxo-1,2-dihydropyridin-3-yl)-N6-ethyl-2-(4-(hydroxymethyl)-1,2,3-thiadiazole-5-carboxamido)-5-oxohexanediamide] | < 1 | 1 to 3 | 150 to 600
CCNC(=O)C(=O)CC[C@H](NC(=O)c1ccc2c(c1)CC(=O)NC2)C(=O)Nc1cccn(CC(=O)NC2(C(=O)O)C3CC4CC2CC(C(F)(F)F)(C4)C3)c1=O (stereo partly drawn) [Compound I-105, (S)-N1-ethyl-N6-(1-(2-(2-carboxy-2-amino-5-(trifluoromethyl)adamantane)-2-oxoethyl)-2-oxo-1,2-dihydropyridin-3-yl)-2-oxo-5-(3-oxo-1,2,3,4-tetrahydroisoquinoline-6-carboxamido)hexanediamide] | < 1 | < 1 | 600 to 3500
CCNC(=O)C(=O)CC[C@H](NC(=O)c1cncn1C)C(=O)Nc1cccn(CC(=O)NC23CC4CC(CC(Br)(C4)C2)C3)c1=O [Compound I-10, (S)-N1-ethyl-N6-(1-(2-(3-bromoadamantane-1-amino)-2-oxoethyl)-2-oxo-1,2-dihydropyridin-3-yl)-5-(1-methyl-1H-imidazole-5-carboxamido)-2-oxohexanediamide] | < 1 | < 1 | 150 to 600
CCNC(=O)C(=O)CC[C@H](NC(=O)c1cc2ccccc2s1)C(=O)Nc1cccn(CC(=O)NC2C3CC4CC(C3)CC2C4)c1=O (stereo partly drawn) [Compound I-34, (S)-2-(benzo[b]thiophene-2-carboxamido)-N6-ethyl-N1-(1-(2-(2-adamantylamino)-2-oxoethyl)-2-oxo-1,2-dihydropyridin-3-yl)-5-oxohexanediamide] | 1 to 10 | 3 to 5 | < 150
CCNC(=O)C(=O)CC[C@H](NC(=O)c1coc(S(N)(=O)=O)c1)C(=O)Nc1cccn(CC(=O)NC2C3CC4CC2CC(NC(C)=O)(C4)C3)c1=O (stereo partly drawn) [Compound I-112, (S)-N1-ethyl-N6-(1-(2-(1-acetylamino-4-aminoadamantane)-2-oxoethyl)-2-oxo-1,2-dihydropyridin-3-yl)-2-oxo-5-(5-sulfamoylfuran-3-carboxamido)hexanediamide] | < 1 | < 1 | 600 to 3500
CCNC(=O)C(=O)CC[C@H](NC(=O)c1noc(C)n1)C(=O)Nc1cccn(CC(=O)NC23CC(C2)C3)c1=O [Compound I-116, (S)-N1-(1-(2-(bicyclo[1.1.1]pentan-1-ylamino)-2-oxoethyl)-2-oxo-1,2-dihydropyridin-3-yl)-N6-ethyl-2-(5-methyl-1,2,4-oxadiazole-3-carboxamido)-5-oxohexanediamide] | < 1 | < 1 | 600 to 3500

Source: US20240270715A1, “INHIBITORS OF TRANSGLUTAMINASES” (ZEDIRA GMBH, priority 2021, published 2024)
